According to ChEMBL document CHEMBL1201862, “PubChem BioAssay data set” (2004):
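Values below derive from 48-hour exposures of cells grown in 96-well plates, with endpoints linearly interpolated between the two concentrations bracketing the appropriate inhibition level. At the GI50, growth is halved.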 Activity calls are given as the source filed them. Cut-off read from the data, not from the text of the source: active = GI50 up to about 1.1 µM and inactive = higher.

Legend:
Assay in all cases: growth of human tumour cells (NCI), 48 h
[1] = test system: M19-MEL
[2] = test system: SNB-78
[3] = test system: LXFL 529
[4] = test system: KM-20L2
[5] = test system: DMS-114
[6] = test system: RXF 631
[7] = test system: DLD-1
[8] = test system: HOP-18
[9] = test system: XF498

Measured: GI50

CCc1ccccc1NC(=O)/C(CC(=O)c1c(C)[n+]([O-])c2ccccc2[n+]1[O-])=N\NS(=O)(=O)c1ccc(C)cc1
inactive: [1] 16 µM | [2] 33.7 µM | [3] 26.3 µM | [4] > 100 µM | [5] 12.3 µM | [6] > 100 µM | [7] 24 µM

CC(C)[Si](OCC1CC(C[C@H]2CC(C[C@H]3C[C@@H](CO[Si](C(C)C)(C(C)C)C(C)C)OC(C)(C)O3)OC(C)(C)O2)OC(C)(C)O1)(C(C)C)C(C)C (stereo not given in full)
inactive: [1] > 100 µM | [2] > 100 µM | [4] > 100 µM | [5] > 100 µM | [8] > 100 µM | [7] > 100 µM

COCC(O)CN1C(N)=NC(O)C1O (stereo not given)
inactive: [1] > 100 µM | [2] > 100 µM | [3] > 100 µM | [4] > 100 µM | [5] > 100 µM | [8] > 100 µM | [7] > 100 µM

CCCCN1C(=O)C2c3[nH]c4ccccc4c3C3CCCCC3C2C1=O.CCCCN1C(=O)C2c3[nH]c4ccccc4c3[C@@H]3CCCCC3C2C1=O (stereo not given)
inactive: [9] 12.5 µM | [1] 37.2 µM | [2] 15 µM | [3] 13.6 µM | [4] 36.6 µM | [5] 12.9 µM | [8] 2.26 µM | [6] 13.7 µM | [7] 12.9 µM

CC(=O)OC(=O)O/C=C\CCl
inactive: [1] > 100 µM | [2] > 100 µM | [3] > 100 µM | [4] > 100 µM | [5] > 100 µM | [8] > 100 µM | [6] > 100 µM | [7] > 100 µM

COc1ccc(C2ON(c3ccccc3)CC=C2C)cc1 (stereo not given)
inactive: [9] 95.7 µM | [1] 43.2 µM | [2] > 100 µM | [3] 66.8 µM | [4] 5.48 µM | [6] 46.6 µM | [7] 79.8 µM

C[n+]1cccc(NC(=O)c2ccc(NC(=O)C34CCC(C(=O)Nc5ccc(C(=O)Nc6ccc[n+](C)c6)cc5)(CC3)CC4)cc2)c1
inactive: [1] 54.1 µM | [2] > 100 µM | [3] 2.81 µM | [4] > 100 µM | [5] 13.8 µM | [8] 25.2 µM | [7] 10.9 µM

Cc1ccc(NC(=O)c2cccc([N+](=O)[O-])c2O)c([N+](=O)[O-])c1
inactive: [9] 20.8 µM | [1] 14.3 µM | [2] 19.4 µM | [3] 13 µM | [4] 18.7 µM | [5] 12.6 µM | [8] 19.2 µM | [6] 12.3 µM | [7] 14.9 µM

COc1ccc2oc(-c3cc4cc(OC)ccc4o3)cc2c1
inactive: [9] > 100 µM | [2] > 100 µM | [3] > 100 µM | [4] > 100 µM | [6] > 100 µM | [7] > 100 µM

CC(C(=O)[O-])S(=O)(=O)O.CCc1c2cc(OC)c(OC)cc2cc2c3cc(OC)c(OC)cc3cc[n+]12
inactive: [9] 5.64 µM | [1] 13.6 µM | [2] 33.7 µM | [3] 5.09 µM | [4] > 100 µM | [5] 7.83 µM | [8] 68.1 µM | [7] 65 µM

O=C1OC(c2ccccc2)C2CC3CC4(CCC3CN12)OCCO4 (stereo not given)
inactive: [9] 70.8 µM | [2] > 100 µM | [3] 32.7 µM | [4] > 100 µM | [6] > 100 µM

C/C(CC(=O)Nc1ccc(Cl)c(Cl)c1)=N/NC(=O)C[n+]1ccccc1
inactive: [9] > 100 µM | [1] > 100 µM | [2] > 100 µM | [3] 66.7 µM | [4] 76.9 µM | [5] 28.4 µM | [8] > 100 µM

O=c1cccccc1NCCCNc1cccccc1=O
inactive: [9] > 100 µM | [1] > 100 µM | [2] > 100 µM | [3] > 100 µM | [4] > 100 µM | [5] > 100 µM | [6] 31 µM

Cc1cc(Cl)ccc1N1C(=O)C(=O)C(c2nc3ccccc3o2)C(=O)C1=O
inactive: [9] > 100 µM | [1] > 100 µM | [2] > 100 µM | [3] 71.3 µM | [4] > 100 µM | [5] 68.9 µM | [8] > 100 µM | [7] 32.9 µM

O=C(O)c1ccc([N+](=O)[O-])c2c(=O)c3ccccc3[nH]c12
inactive: [1] > 100 µM | [2] > 100 µM | [3] > 100 µM | [4] > 100 µM | [5] > 100 µM | [8] > 100 µM | [6] > 100 µM | [7] > 100 µM

COc1cc(C2C(C(=O)Nc3cc(F)c(F)cc3F)=C(C)NC(C)=C2C(=O)Nc2cc(F)c(F)cc2F)ccc1O
inactive: [9] 4.66 µM | [1] 23.4 µM | [2] 22.5 µM | [3] 21.5 µM | [4] 32 µM | [5] 14 µM | [6] 15 µM | [7] 21.5 µM

COc1ccc(/C=[N+](\[O-])[C@H](COCc2ccccc2)c2ccccc2)cc1
inactive: [9] > 100 µM | [2] > 100 µM | [3] 77.8 µM | [4] > 100 µM | [5] > 100 µM | [8] 57.4 µM | [6] > 100 µM | [7] 89.1 µM

CN(CC(=O)O)S(=O)(=O)c1ccc(F)cc1
inactive: [9] > 100 µM | [1] > 100 µM | [3] > 100 µM | [4] > 100 µM | [8] > 100 µM | [6] > 100 µM | [7] > 100 µM

Cc1ccc2c(C3Cc4ccccc4N3C(=O)/C=C\C(=O)O)c(C)[nH]c2c1 (stereo not given)
inactive: [1] 67.5 µM | [2] 17.5 µM | [3] 18.7 µM | [4] > 100 µM | [5] 31.4 µM | [7] 60.3 µM

CCN(CC)c1ccc(/N=N/c2ccc([N+](=O)[O-])cc2OC(=O)/C=C/c2ccccc2)c(OC(=O)/C=C/c2ccccc2)c1
inactive: [9] 6.82 µM | [1] 5 µM | [2] > 100 µM | [3] 21.5 µM | [5] 3.49 µM | [8] 1.7 µM | [6] > 100 µM | [7] 4.18 µM

COc1ccc(-c2cc(=O)c3ccccc3o2)cc1N
inactive: [9] 18.2 µM | [1] 86.1 µM | [2] 68.4 µM | [3] 35.7 µM | [4] 34.1 µM | [5] 34 µM | [8] 17.7 µM | [6] 42.3 µM

COC(=O)N/N=C(/Cc1occc(=O)c1O)C(=O)Nc1ccc([N+](=O)[O-])cc1[N+](=O)[O-]
inactive: [9] > 100 µM | [1] > 100 µM | [2] > 100 µM | [3] > 100 µM | [4] > 100 µM | [5] > 100 µM | [8] > 100 µM | [7] > 100 µM

CC(=O)OC1COC(N2C(=O)C(=O)c3cc(Br)c([N+](=O)[O-])cc32)C(OC(C)=O)C1OC(C)=O (stereo not given)
inactive: [9] 35.9 µM | [1] 21.2 µM | [2] > 100 µM | [3] 50.8 µM | [4] > 100 µM | [5] 24.7 µM | [8] > 100 µM | [6] 48.5 µM | [7] 34.4 µM

Cc1ccc(NC(=O)CCc2nnc3s/c(=C\c4cccc([N+](=O)[O-])c4)c(=O)n23)cc1
inactive: [9] > 100 µM | [1] > 100 µM | [2] > 100 µM | [3] > 100 µM | [4] > 100 µM | [5] > 100 µM | [8] > 100 µM | [6] 60 µM | [7] > 100 µM
